In one assay the target is T1, SHIP1 (Mus musculus, UniProt Q9ES52).
T1 construct: The asterisk in lanes 1 and 3 indicates the ˜145 kD full-length SHIP protein; His tag (C); made in house; host or cells: E. coli Rosetta-Gami 2 (DE3) pLys
T1 sequence (Q9ES52 1-1191): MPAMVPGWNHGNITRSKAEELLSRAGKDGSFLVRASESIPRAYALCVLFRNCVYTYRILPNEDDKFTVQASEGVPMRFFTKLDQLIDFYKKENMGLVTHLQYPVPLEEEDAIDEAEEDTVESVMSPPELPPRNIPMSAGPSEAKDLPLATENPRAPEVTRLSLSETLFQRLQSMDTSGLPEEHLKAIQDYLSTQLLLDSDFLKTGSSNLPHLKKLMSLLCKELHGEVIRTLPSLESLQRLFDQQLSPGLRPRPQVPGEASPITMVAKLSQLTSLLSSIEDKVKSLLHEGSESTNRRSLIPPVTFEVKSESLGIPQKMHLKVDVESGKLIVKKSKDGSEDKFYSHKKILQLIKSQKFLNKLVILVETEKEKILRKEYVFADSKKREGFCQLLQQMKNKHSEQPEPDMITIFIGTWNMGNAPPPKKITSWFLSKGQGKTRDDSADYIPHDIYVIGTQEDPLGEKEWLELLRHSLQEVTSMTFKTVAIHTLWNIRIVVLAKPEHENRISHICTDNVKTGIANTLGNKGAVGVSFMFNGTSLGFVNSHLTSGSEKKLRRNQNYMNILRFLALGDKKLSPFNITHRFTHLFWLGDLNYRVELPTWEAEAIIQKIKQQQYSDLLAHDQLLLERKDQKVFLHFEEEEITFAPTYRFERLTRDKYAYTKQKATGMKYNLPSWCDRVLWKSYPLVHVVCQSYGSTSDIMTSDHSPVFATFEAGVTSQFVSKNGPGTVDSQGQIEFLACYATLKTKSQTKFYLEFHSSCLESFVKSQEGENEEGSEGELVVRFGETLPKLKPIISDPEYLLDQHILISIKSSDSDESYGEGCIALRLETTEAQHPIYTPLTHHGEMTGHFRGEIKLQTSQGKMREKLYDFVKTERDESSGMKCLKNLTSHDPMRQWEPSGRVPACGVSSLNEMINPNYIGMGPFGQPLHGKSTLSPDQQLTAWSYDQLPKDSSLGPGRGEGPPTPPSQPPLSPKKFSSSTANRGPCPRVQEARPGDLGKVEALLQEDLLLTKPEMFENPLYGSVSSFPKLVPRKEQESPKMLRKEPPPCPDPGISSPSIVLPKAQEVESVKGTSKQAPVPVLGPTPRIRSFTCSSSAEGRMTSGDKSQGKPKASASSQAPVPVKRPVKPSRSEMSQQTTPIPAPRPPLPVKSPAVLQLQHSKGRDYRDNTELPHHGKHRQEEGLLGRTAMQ
The experiment in a line: Fluorescence polarization (FP) assay of SHIP1 enzymatic activity. Format: biochemical. To be noted: 0.1 μg of recombinant SHIP1, FP assay. (Polarisation of emitted light reports the rotation of a fluorescent probe.)

The test system of another assay is human PBMC. Put plainly: Human one-way MLR with pre-treated PBMC stimulators. To be noted: stimulator PBMC pre-treated 24 hr with 9.4 μM. The class given is cell-based. From the text: FACS quantitation of Mac1^+Gr1^+ MIR cells in spleen (A) and lymph node (B) of C57BL/6 mice treated with the SHIP1 inhibitor (Compound), vehicle (Vehicle) or unmanipulated controls (Normal) as indicated. (C) Mixed-Leukocyte-Reactions (MLR) where splenocytes from SHIP1 inhibitor-treated C57BL6 (H2b) mice were used as stimulators for BALB/C (H2d) responders. In parallel splenocytes from either unmanipulated (Normal) or Vehicle treated C57BL6 mice were used as positive controls for the MLR. […] (D) Human PBMC were pre-treated for 24 hr with 3α-aminocholestane (Compound) or vehicle, irradiated and then used as stimulators for untreated PBMC from a different donor in a one-way MLR. […] Absolute peripheral blood granulocyte numbers were determined by an automated blood cell analyzer. […]
Mixed leukocyte reactions (MLR): Following RBC lysis, irradiated (2000 Rads) BL6 splenocytes (stimulators) at 8×10^5 cells/well were combined with BALB/c splenocytes (responders) at 4×10^5 cells/well in a one-way MLR assay. […] Incorporated [3H]thymidine was quantitated using a Packard TopCount NXT. Specific [3H]thymidine incorporation into genomic DNA was calculated as the average of the mean (±SEM) of sextuplicate wells. […]

With `CC(C)CCC[C@@H](C)[C@H]1CC[C@H]2[C@@H]3CC[C@H]4C[C@H](N)CC[C@]4(C)[C@H]3CC[C@]12C` [NSC23922, (3R,5S,8R,9S,10S,13R,14S,17R)-10,13-dimethyl-17-[(2R)-6-methylheptan-2-yl]-2,3,4,5,6,7,8,9,11,12,14,15,16,17-tetradecahydro-1H-cyclopenta[a]phenanthren-3-amine], on SHIP1, the inhibition at 10 µM was determined as 50%. Also, the “ability of pre-treated human PBMC to prime allogeneic responses by T cells from an unrelated donor” value in the assay on human PBMC is “significantly reduces”.

One may read the inhibition as the percentage by which the read-out fell short of the control.

(Values after patent US9006221B2, “Method of modulating ship activity” (H. Lee Moffitt Cancer Center and Reserach Institute, Inc., priority 2008, dated 2015).)
